Test results taken from patent publication US20060128724A1, “Pyrazole-substituted aminoheteroaryl compounds as protein kinase inhibitors” (AGOURON PHARMACEUTICALS, INC., priority 2004, published 2006).
pKi: −log10 of the molar value.

Biological target: T1, c-MET (HGFR) (Homo sapiens, UniProt P08581)
T1 construct: purchased Upstate 14-526
Test: HGFR Continuous-Coupled Spectrophotometric Assay
Type: biochemical
Conditions: Met-2 substrate peptide, 50 nM HGFR, 37° C.; read-out: Met Ki
Excerpt: The following in vitro assay may be used to determine the level of activity and effect of the different compounds of the present invention on one or more of the PKs. Similar assays can be designed along the same lines for any PK using techniques well known in the art.
The general procedure is as follows: compounds and kinase assay reagents are introduced into test wells. The assay is initiated by addition of the kinase enzyme. Enzyme inhibitors reduce the measured activity of the enzyme.
In the continuous-coupled spectrophotometric assay the time-dependent production of ADP by the kinase is determined by analysis of the rate of consumption of NADH by measurement of the decrease in absorbance at 340 nm. As the PK produces ADP it is re-converted to ATP by reaction with phosphoenol pyruvate and pyruvate kinase. Pyruvate is also produced in this reaction. Pyruvate is subsequently converted to lactate by reaction with lactate dehydrogenase, which simultaneously converts NADH to NAD.
HGFR Continuous-Coupled Spectrophotometric Assay
This assay analyzes the tyrosine kinase activity of HGFR on the Met-2 substrate peptide, a peptide derived from the activation loop of the HGFR.
• 1. […] Dissolve up in 200 mM HEPES, pH 7.5 at 10 mM stock. • 3. 1 M PEP (phospho-enol-pyruvate) in 200 mM HEPES, pH 7.5 • 4. 100 mM NADH (B-Nicotinamide Adenine Dinucleotide, Reduced Form) in 200 mM HEPES, pH 7.5 • 5. 4 M MgCl2 (Magnesium Chloride) in ddH2O • 6. 1 M DTT (Dithiothreitol) in 200 mM HEPES, pH 7.5 • 7. 15 Units/mL LDH (Lactic Dehydrogenase) • 8. 15 Units/mL PK (Pyruvate Kinase) • 9. 5M NaCl dissolved in ddH2O • 10. Tween-20 (Protein Grade) 10% Solution • 11. 1 M HEPES buffer: (N-[2-Hydroxethyl]piperazine-N-[2-ethanesulfonic acid]) Sodium Salt. Dissolve in ddH2O, adjust pH to 7.5, bring volume to 1 L. Filter at 0.1 μm. • 12. […] 100% DMSO (SIGMA) • 14. […] Beckman DU-650 w/micro cell holders • 18. Beckman 4-position micro cell cuvette Procedure:
Prep Dilution Buffer (DB) for Enzyme (For 30 mL prep) • 1. DB final concentration is 2 mM DTT, 25 mM NaCl2, 5 mM MgCl2, 0.01% Tween-20, and 50 mM HEPES buffer, pH 7.5. • 2. Make up 50 mM HEPES by adding 1.5 mL 1 M HEPES into 28.1 mL of ddH2O. Add rest of the reagents. Into 50 mL conical vial, add 60 μL of 1M DTT, 150 μL 5M NaCl2, 150 μL 1M MgCl2, and 30 μL of 10% Tween-20 to give total volume of 30 mL. • 3. […] Aliquot out DB at 1 mL/tube and label tubes as “DB HGFR” • 5. Note: This can be prepared and stored ahead of time. • 6. Freeze un-used aliquots in microcentrifuge tubes at −20° C. freezer. […] For compound dilution plate, add 4 μL of 10 mM stock into column 1 of plate, and bring volume to 100 μL with 100% DMSO. • 2. Set up the Precision 2000 dilution method. A final concentration of 200 μM compound in 50% DMSO, 100 mM HEPES (1:2 serial dilution). Prep Coupled Enzymatic Buffer:
1. Final concentration in assay:
• 2. For a 10 mL reaction buffer add 10 μL of 1M PEP, 33 μL of 100 mM NADH, 50 μL of 4M MgCl2, 20 μL of 1M DTT, 6 μL of 500 mM ATP, and 500 μL of 10 mM Met-2 peptide into 100 mM HEPES buffer pH 7.5 and vortex/mix. • 3. Add coupling enzymes, LDH and PK, into reaction mix. Mix by gentle inversion. Running Samples
1. Spectrophotometer settings:
• 2. Add 85 μL of CE reaction mix into each well of assay plate. • 3. Add 5 μL of diluted compound into a well of the assay plate. • 4. Add 5 μL of 50% DMSO for negative control into last column of assay plate. • 5. Mix with multi-channel pipettor or orbital shaker. • 6. Pre-incubate for 10 minutes at 37° C. • 7. Add 10 μL of 500 nM HGFR to each well of assay plate; the final HGFR concentration is 50 nM in a total final volume of 100 μL. • 8. Measure activity for 10 minutes at λ=340 nm and 37° C.

T1 sequence (P08581 974-1390 limits assumed): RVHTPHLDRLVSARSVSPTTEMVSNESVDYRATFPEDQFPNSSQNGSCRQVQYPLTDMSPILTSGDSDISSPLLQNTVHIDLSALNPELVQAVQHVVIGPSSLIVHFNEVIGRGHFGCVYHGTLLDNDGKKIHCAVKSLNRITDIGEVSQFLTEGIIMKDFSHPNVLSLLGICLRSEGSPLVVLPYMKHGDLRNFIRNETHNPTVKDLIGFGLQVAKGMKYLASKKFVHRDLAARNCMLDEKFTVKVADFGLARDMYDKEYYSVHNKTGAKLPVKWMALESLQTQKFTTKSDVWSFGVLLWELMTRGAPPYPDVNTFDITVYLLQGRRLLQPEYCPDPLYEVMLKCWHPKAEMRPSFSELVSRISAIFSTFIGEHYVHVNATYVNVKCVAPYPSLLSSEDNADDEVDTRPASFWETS

| Compound | pKi |
| --- | --- |
| 4-(4-{6-Amino-5-[1- (2,6-dichloro-3-fluoro- phenyl)-ethoxy]-pyridin- 3-yl}-pyrazoI-1-yl)- piperidine-1- carboxylic acid dimethylamide [Example 120] | 7.80 |

Same assay, conditions: Met-2 substrate peptide, 50 nM HGFR, 37° C.; read-out: c-Met Ki

| pKi | Compound |
| --- | --- |
| 7.38 | CCOC(=O)[C@H]1CC1Cn1cc(-c2cnc(N)c(OC(C)c3c(Cl)ccc(F)c3Cl)c2)cn1 (stereo in doubt) [Example 9, ethyl 2-[(4-{6-amino-5-[1-(2,6-dichloro-3-fluorophenyl)ethoxy]pyridin-3-yl}-1H-pyrazol-1-yl)methyl]cyclopropanecarboxylate] |
| 7.15 | CNC(=O)[C@H]1C[C@@H]1Cn1cc(-c2cnc(N)c(OC(C)c3c(Cl)ccc(F)c3Cl)c2)cn1 (stereo in doubt) [Example 10, 2-[(4-{6-amino-5-[1-(2,6-dichloro-3-fluorophenyl)ethoxy]pyridin-3-yl}-1H-pyrazol-1-yl)methyl]-N-methylcyclopropanecarboxamide] |
| 6.84 | CC(Oc1cc(-c2cnn(C[C@H]3C[C@@H]3C(=O)N(C)C)c2)cnc1N)c1c(Cl)ccc(F)c1Cl (stereo in doubt) [Example 11, 2-[(4-{6-amino-5-[1-(2,6-dichloro-3-fluorophenyl)ethoxy]pyridin-3-yl}-1H-pyrazol-1-yl)methyl]-N,N-dimethylcyclopropanecarboxamide] |
| 7.40 | CC(Oc1cc(-c2cnn([C@H](C)C(=O)NCCCN(C)C)c2)cnc1N)c1c(Cl)ccc(F)c1Cl (stereo in doubt) [Example 74, 2-(4-{6-Amino-5-[1-(2,6-dichloro-3-fluoro-phenyl)-ethoxy]-pyridin-3-yl}-pyrazol-1-yl)-N-(3-dimethylamino-propyl)-propionamide] |
| 7.21 | CC(Oc1cc(-c2cnn(C[C@H]3COC(C)(C)O3)c2)cnc1N)c1c(Cl)ccc(F)c1Cl (stereo in doubt) [Example 86, 3-[1-(2,6-Dichloro-3-fluoro-phenyl)-ethoxy]-5-[1-(2,2-dimethyl-[1,3]dioxolan-4-ylmethyl)-1H-pyrazol-4-yl]-pyridin-2-ylamine] |
| 7.55 | CC(Oc1cc(-c2cnn(C[C@H](O)CO)c2)cnc1N)c1c(Cl)ccc(F)c1Cl (stereo in doubt) [Example 87, 3-(4-{6-Amino-5-[1-(2,6-dichloro-3-fluoro-phenyl)-ethoxy]-pyridin-3-yl}-pyrazol-1-yl)-propane-1,2-diol] |
| 6.10 | C[C@@H](Oc1nc(Br)cnc1N)c1c(Cl)ccc(F)c1Cl [5-bromo-3-[(R)-1-(2,6-dichloro-3-fluoro-phenyl)-ethoxy]-pyrazin-2-ylamine] |
| 7.18 | CC(Oc1cc(-c2cnn(CC3CN(C(=O)OC(C)(C)C)C3)c2)cnc1N)c1c(Cl)ccc(F)c1Cl (stereo not shown) [Example 1, tert-butyl 3-[(4-{6-amino-5-[1-(2,6-dichloro-3-fluorophenyl)ethoxy]pyridin-3-yl}-1H-pyrazol-1-yl)methyl]azetidine-1-carboxylate] |
| 6.98 | CC(Oc1cc(-c2cnn(CC3(O)CCN(C(=O)OC(C)(C)C)CC3)c2)cnc1N)c1c(Cl)ccc(F)c1Cl (stereo not shown) [Example 3, tert-butyl 4-[(4-{6-amino-5-[1-(2,6-dichloro-3-fluorophenyl)ethoxy]pyridin-3-yl}1H-pyrazol-1-yl)methyl]-4-hydroxypiperidine-1-carboxylate] |
| 7.21 | CC(Oc1cc(-c2cnn(CC3(O)CCNCC3)c2)cnc1N)c1c(Cl)ccc(F)c1Cl (stereo not shown) [Example 4, 4-[(4-{6-amino-5-[1-(2,6-dichloro-3-fluorophenyl)ethoxy]pyridin-3-yl}1H-pyrazol-1-yl)methyl]piperidin-4-ol] |
| 7.42 | CC(Oc1cc(-c2cnn(C3CN(CC4CC4)C3)c2)cnc1N)c1c(Cl)ccc(F)c1Cl (stereo not shown) [Example 6, 5-{1-[1-(cyclopropylmethyl)azetidin-3-yl]-1H-pyrazol-4-yl}-3-[1-(2,6-dichloro-3-fluorophenyl)ethoxy]pyridin-2-amine] |
| 7.66 | CC(Oc1cc(-c2cnn(C3CN(C(=O)CN(C)C)C3)c2)cnc1N)c1c(Cl)ccc(F)c1Cl (stereo not shown) [Example 7, 3-[1-(2,6-dichloro-3-fluorophenyl)ethoxy]-5-(1-{1-[(dimethylamino)acetyl]azetidin-3-yl}-1H-pyrazol-4-yl)pyridin-2-amine] |
| 7.60 | CC(Oc1cc(-c2cnn(C3CN(CC#N)C3)c2)cnc1N)c1c(Cl)ccc(F)c1Cl (stereo not shown) [Example 8, [3-(4-{6-amino-5-[1-(2,6-dichloro-3-fluorophenyl)ethoxy]pyridin-3-yl}-1H-pyrazol-1-yl)azetidin-1-yl]acetonitrile] |
| 6.74 | CC(Oc1cc(-c2cnn(C(C)(C)C(=O)O)c2)cnc1N)c1c(Cl)ccc(F)c1Cl (stereo not shown) [Example 12, 2-(4-{6-Amino-5-[1-(2,6-dichloro-3-fluoro-phenyl)-ethoxy]-pyridin-3-yl}-pyrazol-1-yl)-2-methyl-propionic acid] |
| 6.89 | CC(Oc1cc(-c2cnn(C)c2N)cnc1N)c1c(Cl)ccc(F)c1Cl (stereo not shown) [Example 13, 5-(5-Amino-1-methyl-1H-pyrazol-4-yl)-3-[1-(2,6-dichloro-3-fluoro-phenyl)-ethoxy]-pyridin-2-ylamine] |
| 6.15 | Cc1[nH]ncc1-c1cnc(N)c(OC(C)c2c(Cl)ccc(F)c2Cl)c1 (stereo not shown) [Example 14, 3-[1-(2,6-Dichloro-3-fluoro-phenyl)-ethoxy]-5-(5-methyl-1H-pyrazol-4-yl)-pyridin-2-ylamine] |
| 7.22 | CC(Oc1cc(-c2cnn(C(C)(C)C(=O)NCCCN(C)C)c2)cnc1N)c1c(Cl)ccc(F)c1Cl (stereo not shown) [Example 16, 2-(4-{6-Amino-5-[1-(2,6-dichloro-3-fluoro-phenyl)-ethoxy]-pyridin-3-yl}-pyrazol-1-yl)-N-(3-dimethylamino-propyl)-isobutyramide] |
| 6.36 | CC(Oc1cc(-c2cnn(C(C)(C)C(=O)N3CCNCC3)c2)cnc1N)c1c(Cl)ccc(F)c1Cl (stereo not shown) [Example 17, 2-(4-{6-Amino-5-[1-(2,6-dichloro-3-fluoro-phenyl)-ethoxy]-pyridin-3-yl}-pyrazol-1-yl)-2-methyl-1-piperazin-1-yl-propan-1-one] |
| 6.57 | CC(Oc1cc(-c2cnn(C(C)(C)C(=O)N3CC[C@@H](O)C3)c2)cnc1N)c1c(Cl)ccc(F)c1Cl (stereo partly drawn) [Example 18, 2-(4-{6-Amino-5-[1-(2,6-dichloro-3-fluoro-phenyl)-ethoxy]-pyridin-3-yl}-pyrazol-1-yl)-1-((R)-3-hydroxy-pyrrolidin-1-yl)-2-methyl-propan-1-one] |
| 6.85 | CC(Oc1cc(-c2cnn(C(C)(C)C(=O)NCCN3CCOCC3)c2)cnc1N)c1c(Cl)ccc(F)c1Cl (stereo not shown) [Example 19, 2-(4-{6-Amino-5-[1-(2,6-dichloro-3-fluoro-phenyl)-ethoxy]-pyridin-3-yl}-pyrazol-1-yl)-N-(2-morpholin-4-yl-ethyl)-isobutyramide] |
| 7.22 | CC(Oc1cc(-c2cnn(C(C)(C)C(=O)NCCN3CCCC3)c2)cnc1N)c1c(Cl)ccc(F)c1Cl (stereo not shown) [Example 21, 2-(4-{6-Amino-5-[1-(2,6-dichloro-3-fluoro-phenyl)-ethoxy]-pyridin-3-yl}-pyrazol-1-yl)-N-(2-pyrrolidin-1-yl-ethyl)-isobutyramide] |
